In patent US20050234046A1 (Kalypsys, Inc., priority 2004, published 2005) one finds EC50 data, which are given here for 20 molecules.

Experiment in all cases: Transient transfection (transactivation) assay in CV-1 cells, GAL4-PPAR chimera, luciferase reporter
What all share (format): cell-based
(In general: In a reporter assay the amount or activity of a reporter protein is the signal.)

One assay has as its target T1, PPAR gamma (Homo sapiens, UniProt P37231).
T1 construct: expressed in transfected cells; host or cells: CV-1 cells
T1 sequence (P37231 238-503 limits assumed): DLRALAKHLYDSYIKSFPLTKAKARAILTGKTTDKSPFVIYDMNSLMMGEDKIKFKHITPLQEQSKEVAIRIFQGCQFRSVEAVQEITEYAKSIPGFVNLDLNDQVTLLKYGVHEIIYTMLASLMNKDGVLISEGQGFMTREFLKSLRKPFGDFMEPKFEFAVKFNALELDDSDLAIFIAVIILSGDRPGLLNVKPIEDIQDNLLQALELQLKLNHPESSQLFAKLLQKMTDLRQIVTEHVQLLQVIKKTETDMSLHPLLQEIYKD

The target in the next assay is T2, PPAR alpha (Homo sapiens, UniProt Q07869).
T2 construct: expressed in transfected cells; host or cells: CV-1 cells
T2 sequence (Q07869 239-466 limits assumed): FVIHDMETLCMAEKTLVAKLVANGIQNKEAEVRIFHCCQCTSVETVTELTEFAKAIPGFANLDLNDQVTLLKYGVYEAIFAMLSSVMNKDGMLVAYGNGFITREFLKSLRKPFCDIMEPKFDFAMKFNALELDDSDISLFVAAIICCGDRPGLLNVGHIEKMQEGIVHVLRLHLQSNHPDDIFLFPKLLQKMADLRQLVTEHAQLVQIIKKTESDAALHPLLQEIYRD
The essentials:
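EC50 and efficacy come from a luciferase read-out after 20-24 hours of compound exposure (vehicle 1% DMSO) in transiently transfected CV-1 cells. These cells express a GAL4-PPAR ligand-binding-domain chimera plus a reporter with four or five GAL4 binding sites, and are kept in phenol-red free DME with 5% delipidated calf serum.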

For a further assay, the target named is T3, PPAR delta (Homo sapiens, UniProt Q03181).
T3 construct: expressed in transfected cells; host or cells: CV-1 cells
T3 sequence (Q03181 211-439 limits assumed): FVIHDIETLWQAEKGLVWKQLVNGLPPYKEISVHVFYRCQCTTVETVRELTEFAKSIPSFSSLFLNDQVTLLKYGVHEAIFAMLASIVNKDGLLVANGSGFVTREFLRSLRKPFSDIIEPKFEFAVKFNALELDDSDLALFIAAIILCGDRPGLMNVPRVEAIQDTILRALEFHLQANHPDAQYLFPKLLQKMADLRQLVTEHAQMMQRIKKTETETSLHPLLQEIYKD

Some results are limits rather than exact numbers.

Text for PPAR delta: Compounds may be screened for functional potency in transient transfection assays in CV-1 cells or other cell types for their ability to activate the PPAR subtypes (transactivation assay). A previously established chimeric receptor system was utilized to allow comparison of the relative transcriptional activity of the receptor subtypes on the same synthetic response element and to prevent endogenous receptor activation from complicating the interpretation of results. […] The ligand binding domains for murine and human PPAR-alpha, PPAR-gamma, and PPAR-delta are each fused to the yeast transcription factor GAL4 DNA binding domain. CV-1 cells were transiently transfected with expression vectors for the respective PPAR chimera along with a reporter construct containing four or five copies of the GAL4 DNA binding site driving expression of luciferase. After 8-16 h, the cells are replated into multi-well assay plates and the media is exchanged to phenol-red free DME medium supplemented with 5% delipidated calf serum. 4 hours after replating, cells were treated with either compounds or 1% DMSO for 20-24 hours. Luciferase activity was then assayed with Britelite (Perkin Elmer) following the manufacturer's protocol and measured with either the Perkin Elmer Viewlux or Molecular Devices Acquest Xsee, for example, Kliewer, S. A., et. al. Cell 1995, 83, 813-819). Rosiglitazone is used as a positive control in the hPPAR-γ assay. Wy-14643 and GW7647 is used as a positive control in the hPPAR-α assay. GW501516 is used as the positive control in the hPPAR-δ assay.

A word on the EC50: it is the concentration at which the effect is half-maximal. For the molecule `CCC1CN(S(=O)(=O)c2ccc(C)c(CC(=O)O)c2)CCN1c1ccc(C(F)(F)F)cn1` (stereo not drawn) [Example 94, {5-[3-Ethyl-4-(5-trifluoromethyl-pyridin-2-yl)-piperazine-1-sulfonyl]-2-methyl-phenyl}-acetic acid], the concentration giving a half-maximal response (EC50) at PPAR gamma was less than 5 µM; on PPAR alpha it was 5 to 100 µM; at PPAR delta it was less than 5 µM.

For `Cc1ccc(S(=O)(=O)N2CCN(c3ccc(C(F)(F)F)nc3)CC2)cc1CC(=O)O` [Example 95, {2-Methyl-5-[4-(6-trifluoromethyl-pyridin-3-yl)-piperazine-1-sulfonyl]-phenyl}-acetic acid], the EC50 on PPAR gamma is more than 100 µM; on PPAR alpha, more than 100 µM; on PPAR delta, less than 5 µM.

As for `O=C(O)Cc1cccc(S(=O)(=O)N2CCN(c3ccc(C(F)(F)F)cc3Br)CC2)c1` [Example 96], the half-maximal effective concentration (EC50) is more than 100 µM on PPAR gamma, less than 5 µM at PPAR alpha and less than 5 µM at PPAR delta.

`Cc1ccc(S(=O)(=O)N2CCN(c3ccc(C(F)(F)F)cc3Br)CC2)cc1CC(=O)O` [Example 97, {5-[4-(2-Bromo-4-trifluoromethyl-phenyl)-piperazine-1-sulfonyl]-2-methyl-phenyl-}acetic acid]: the EC50 at PPAR gamma was more than 100 µM; at PPAR alpha, less than 5 µM; at PPAR delta, less than 5 µM.

Regarding `CCC1CN(c2ccc(C(F)(F)F)c(Cl)c2)CCN1S(=O)(=O)c1ccc(C)c(CC(=O)O)c1` (stereo not drawn) [Example 98, {5-[2-Ethyl-4-(3-chloro-4-trifluoromethyl-phenyl)-piperazine-1-sulfonyl]-2-methyl-phenyl}-acetic acid], the concentration giving a half-maximal response (EC50) on PPAR gamma was more than 100 µM; at PPAR alpha, less than 5 µM; at PPAR delta it was less than 5 µM.

For `Cc1ccc(S(=O)(=O)N2CCN(c3ccc(OC(F)(F)F)cc3)[C@@H](C)C2)cc1CC(=O)O` [Example 99], the EC50 was 5 to 100 µM at PPAR gamma, less than 5 µM on PPAR alpha and less than 5 µM on PPAR delta.

Take `Cc1ccc(S(=O)(=O)N2[C@H](C)CN(c3ccc(OC(F)(F)F)cc3)C[C@@H]2C)cc1CC(=O)O` [Example 100, {5-[2,6-Dimethyl-4-(4-trifluoromethoxy-phenyl)-piperazine-1-sulfonyl]-2-methyl-phenyl}-acetic acid]: the values for the concentration for a half-maximal effect (EC50) at PPAR gamma, at PPAR alpha and on PPAR delta were 5 to 100 µM, 5 to 100 µM and less than 5 µM, respectively.

Turning to `Cc1ccc(S(=O)(=O)N2CCN(c3ccc(Cl)c(Cl)c3)C[C@@H]2C)cc1CC(=O)O` [Example 101, {5-[4-(3,4-Dichloro-phenyl)-2-(S)-methyl-piperazine-1-sulfonyl]-2-methyl-phenyl}-acetic acid], the figures for the EC50 at PPAR gamma, on PPAR alpha and at PPAR delta were 5 to 100 µM, 5 to 100 µM and less than 5 µM, respectively.

Turning to `Cc1ccc(S(=O)(=O)N2CCN(c3ccc(Cl)c(Cl)c3)[C@@H](C)C2)cc1CC(=O)O` [Example 102, {5-[4-(3,4-Dichloro-phenyl)-3-(S)-methyl-piperazine-1-sulfonyl]-2-methyl-phenyl}-acetic acid], the values for the 50% effective concentration (EC50) at PPAR gamma, at PPAR alpha and on PPAR delta were 5 to 100 µM, 5 to 100 µM and less than 5 µM, respectively.

`Cc1ccc(S(=O)(=O)N2[C@@H](C)CN(c3ccc(C(F)(F)F)cn3)C[C@@H]2C)cc1CC(=O)O` [Example 103, {5-[2,6-(S,S)-Dimethyl-4-(5-trifluoromethyl-pyridin-2-yl)-piperazine-1-sulfonyl]-2-methyl-phenyl}-acetic acid]: the half-maximal effective concentration (EC50) on PPAR gamma was 5 to 100 µM; at PPAR alpha, 5 to 100 µM; on PPAR delta it was less than 5 µM.

Turning to `Cc1ccc(S(=O)(=O)N2[C@H](C)CN(c3ccc(C(F)(F)F)c(Cl)c3)C[C@@H]2C)cc1CC(=O)O` [Example 107, {5-[4-(3-Chloro-4-trifluoromethyl-phenyl)-2,6-dimethyl-piperazine-1-sulfonyl]-2-methyl-phenyl}-acetic acid], the EC50 on PPAR gamma was more than 100 µM; on PPAR alpha, more than 100 µM; at PPAR delta, less than 5 µM.

`Cc1ccc(S(=O)(=O)N2C[C@H](C)N(c3ccc(C(F)(F)F)cn3)[C@@H](C)C2)cc1CC(=O)O` [Example 108, {5-[3,5-(S,S)-Dimethyl-4-(5-trifluoromethyl-pyridin-2-yl)-piperazine-1-sulfonyl]-2-methyl-phenyl}-acetic acid]: the values for the EC50 at PPAR gamma, on PPAR alpha and on PPAR delta were 5 to 100 µM, 5 to 100 µM and less than 5 µM, respectively.

Turning to `C[C@@H]1CN(c2ccc(OC(F)(F)F)cc2)C[C@H](C)N1S(=O)(=O)c1cccc(CC(=O)O)c1` [Example 109, {3-[2,6-Dimethyl-4-(4-trifluoromethoxy-phenyl)-piperazine-1-sulfonyl]-phenyl}-acetic acid], the EC50 on PPAR gamma was more than 100 µM; at PPAR alpha, 5 to 100 µM; at PPAR delta, less than 5 µM.

Regarding `Cc1cc(CC(=O)O)cc(S(=O)(=O)N2[C@H](C)CN(c3ccc(OC(F)(F)F)cc3)C[C@@H]2C)c1` [Example 110, {3-[2,6-Dimethyl-4-(4-trifluoromethoxy-phenyl)-piperazine-1-sulfonyl]-5-methyl-phenyl}-acetic acid], the EC50 at PPAR gamma is 5 to 100 µM; on PPAR alpha it was 5 to 100 µM; on PPAR delta, less than 5 µM.

On to `C[C@@H]1CN(c2ccc(OC(F)(F)F)cc2)C[C@H](C)N1S(=O)(=O)c1cc(CC(=O)O)cc(C(F)(F)F)c1` [Example 111, {3-[2,6-Dimethyl-4-(4-trifluoromethoxy-phenyl)-piperazine-1-sulfonyl]-5-trifluoromethyl-phenyl}-acetic acid], for which the 50% effective concentration (EC50) on PPAR gamma was 5 to 100 µM; at PPAR alpha, 5 to 100 µM; at PPAR delta, less than 5 µM.

For the molecule `Cc1cc(CC(=O)O)cc(S(=O)(=O)N2[C@H](C)CN(c3ccc(C(F)(F)F)c(Cl)c3)C[C@@H]2C)c1` [Example 112, {3-[4-(3-Chloro-4-trifluoromethyl-phenyl)-2,6-dimethyl-piperazine-1-sulfonyl]-5-methyl-phenyl}-acetic acid], the results for the concentration for a half-maximal effect (EC50) at PPAR gamma, at PPAR alpha and at PPAR delta were more than 100 µM, 5 to 100 µM and less than 5 µM, respectively.

With `C[C@@H]1CN(c2ccc(C(F)(F)F)c(F)c2)C[C@H](C)N1S(=O)(=O)c1cccc(CC(=O)O)c1` [Example 113, {3-[4-(3-Fluoro-4-trifluoromethyl-phenyl)-2,6-dimethyl-piperazine-1-sulfonyl]-phenyl}-acetic acid], the concentration for a half-maximal effect (EC50) on PPAR gamma was more than 100 µM; at PPAR alpha, 5 to 100 µM; on PPAR delta, less than 5 µM.

For the molecule `C[C@@H]1CN(c2ccc(C(F)(F)F)c(Cl)c2)C[C@H](C)N1S(=O)(=O)c1cccc(CC(=O)O)c1` [Example 114, {3-[4-(3-Chloro-4-trifluoromethyl-phenyl)-2,6-dimethyl-piperazine-1-sulfonyl]-phenyl}-acetic acid], the 50% effective concentration (EC50) on PPAR gamma was more than 100 µM; at PPAR alpha, 5 to 100 µM; at PPAR delta, less than 5 µM.

In the case of `O=C(O)Cc1cccc(S(=O)(=O)N2CCN(c3ccc(Cl)c(Cl)c3)CC2)c1` [Example 115, {3-[4-(3,4-Dichloro-phenyl)-piperazine-1-sulfonyl]-phenyl}-acetic acid], the values for the concentration giving a half-maximal response (EC50) at PPAR gamma, on PPAR alpha and on PPAR delta were 5 to 100 µM, 5 to 100 µM and less than 5 µM, respectively.

Regarding `O=C(O)Cc1cccc(S(=O)(=O)N2CCN(c3ccc(Cl)cc3)CC2)c1` [Example 116, {3-[4-(4-Chloro-phenyl)-piperazine-1-sulfonyl]-phenyl}-acetic acid], the values for the concentration for a half-maximal effect (EC50) on PPAR gamma, on PPAR alpha and at PPAR delta were 5 to 100 µM, more than 100 µM and less than 5 µM, respectively.
